Values quoted from earlier work as cited in patent US20180153800A1, “PERSONAL LUBRICANT PROVIDING SEQUENTIAL MULTISENSORIAL PERCEPTIONS AND ARTICLES INCORPORATING SUCH LUBRICANT” (Church & Dwight Co., Inc., priority 2016, published 2018).

System: human tissue

SMILES | cooling sensation relative to menthol (reference menthol) | time of onset of cooling sensation (after tissue contact) | sensation duration (cooling sensation)
CC1CCC(C(C)C)C(C(=O)Nc2ccc(CC#N)cc2)C1 (stereo not drawn) [N-(4-cyanomethylphenyl) p-menthanecarboxamide] | 10 times | – | –
CC1CCC(C(C)C)C(OC(=O)CCC(=O)N(C)C)C1 (stereo not drawn) [2-isopropyl-5-methylcyclohexyl 4-(dimethylamino)-4-oxobutanoate] | – | about 25 seconds | about 11.25 minutes
